From US9662329B2, “Use of survivin antagonists in polyomavirus-related disease” (University of Pittsburgh—Of the Commonwealth System of …, priority 2012, dated 2017)
Counter-ions that a name gives are not always drawn. Like-named read-outs stand apart in the source and are kept apart here.

Assays:
Type in all cases: cell-based, human
MKL-1 cells [1] = assay: MKL-1 cytotoxicity screen (Cell Titer Glo); details: screened at 10^-5 M; 48 hours; cut-off <10% cell survival
Text: A total of 1,360 compounds were used in the initial screening survey: 1,280 compounds from LOPAC1280 library (Sigma Aldrich, accessed through University of Pittsburgh Drug Discovery Institute), 89 compounds from NCI's Approved Oncology Drug Set II (from The NCI/DTP Open Chemical Repository, http://dtp.cancer.gov), 6 LT ATPase inhibitors (MAL2-11B, MAL3-101, MAL2-51, DMT3084, bithionol and hexachlorophene (Wright et al., Inhibition of Simian Virus 40 replication by targeting the molecular chaperone function and ATPase activity of T antigen. Virus Res 141, 71 (April, 2009); Seguin et al., High-Throughput Screening Identifies a Bisphenol Inhibitor of SV40 Large T Antigen ATPase Activity. […] NCI Approved Oncology Drug Set II, SV40 LT ATPase inhibitors and MDM2 inhibitors were reconstituted as recommended by supplier. […] Reconstituted compounds were diluted in cell culture media to obtain a 100× stock concentration prior to addition to cells. Doxorubicin (positive control) was obtained from Sigma-Aldrich and DMSO (negative control) was obtained from Fisher Bioreagents.
MKL-1 cells were seeded at a density of 6000 cells in 50 μl of medium per well (120 cells/μl) in opaque polypropylene 384-well microplates (#781080, Greiner Bio-One, Germany). Cells were incubated at 37° C. in humidified air containing 5% CO2 for 24 hours. Thereafter, 25 μl of medium containing 3× drug per well was added to the plates, which were incubated for an additional 48 hours. Cell viability was measured using Cell Titer Glo (Promega) following manufacturer's instructions.
The LOPAC1280 library was screened at a final concentration of 10 μM for each compound and the NCI library was screened at a final concentration of 1 μM for each compound.
Cell Titer Glo assays were performed in duplicate using 384 well plates, each containing 24 wells with 1% DMSO (negative control) and 32 wells with 200 μM doxorubicin (positive control). Screening results were evaluated on the basis of percentage cell survival normalized to the DMSO control (100%). Positive candidates were identified using a cut-off value of <10% cell survival.

WaGa = assay: Cell Titer Glo dose-response study; details: read-out: EC50 concentrations for MCC cell lines, WaGa
Text: (§1) Seven Merkel cell carcinoma cell lines: MKL-1, MKL-2, MS-1, UISO, MCC13, MCC26 and WaGa (kind gift of Jurgen Becker (Houben et al., Merkel cell polyomavirus-infected Merkel cell carcinoma cells require expression of viral T antigens. J Virol 84, 7064 (July, 2010); Ronan et al., Merkel cell carcinoma: in vitro and in vivo characteristics of a new cell line. J Am Acad Dermatol 29, 715 (November, 1993); Rosen et al., Establishment and characterization of a neuroendocrine skin carcinoma cell line. Lab Invest 56, 302 (March, 1987)); NCI-H69 small cell lung cancer cell line (ATCC); 293 human embryonic kidney cells (ATCC); U2OS osteosarcoma cell line (kind gift of Ole Gjoerup); BJhTERT immortalized foreskin fibroblast cell line (kind gift of Ole Gjoerup); and BJ primary foreskin fibroblasts (ATCC) were used to screen and evaluate the small molecules examined in this study (Houben et al., J Virol 84, 7064 (July, 2010); Ronan et al., J Am Acad Dermatol 29, 715 (November, 1993); Rosen et al., Lab Invest 56, 302 (March, 1987)). The Merkel cell lines and NCI-H69 were grown in RPMI 1640 supplemented with 10% fetal calf serum, penicillin and streptomycin at 37° C. in humidified air containing 5% CO2. The remaining cell lines were grown in DMEM supplemented with 10% fetal calf serum.
(§2) For EC50 measurements, dose-response curves were established for 17 drugs obtained individually in bulk stocks. Iodoacetamide (I1149), sanguarine chloride (S5890), NSC95397 (N1786), chelerythrine chloride (C2932), calmidazolium chloride (C3930), tetraethylthiuram disulfide (T1132), bay 11-7085 (B5681), quinacrine dihydro chloride (Q3251), ellipticine (E3380), amsacrine hydrochloride (A9809) and nutlin-3 (N6287) were purchased from Sigma Aldrich, USA.
(§3) Compounds that met the selection criteria <10% cell survival were purchased or obtained in bulk from NCI/NIH Developmental Therapeutics Program. Serial drug dilutions from 10^−4 M to 10^−9 M were used on MCC and non-MCC cell lines. Cells were seeded into 384-well plates at 6000 cells in 50 μl of medium per well. After 24 hours, 25 μl of 3× drugs were added at increasing concentration to each well. Cell viability was then measured using Cell Titer Glo (Promega) kit following manufacturer's instructions as described previously. Each drug concentration was tested in triplicate for each cell line and experiments were repeated twice. EC50 doses for the drugs were calculated using a four parameter logistic equation (GraphPad Prism).

UISO = assay: Cell Titer Glo dose-response study; details: read-out: EC50 concentrations for MCC cell lines, UISO
Text: as §1, §2, §3

MKL-1 = assay: Cell Titer Glo dose-response study
Text: as §1, §2, §3

MS-1 = assay: Cell Titer Glo dose-response study
Text: as §1, §2, §3

MKL-2 = assay: Cell Titer Glo dose-response study; details: read-out: EC50 concentrations for MCC cell lines, MKL-2
Text: as §1, §2, §3

MKL-1 cells [2] = assay: Cell cycle analysis (PI and BrdU staining); details: 12 h, YM155 100 nM, camptothecin 1 μM
Procedure: MKL-1 cells were treated with Accutase (Millipore) to break clumps and then resuspended in fresh medium containing drug and treated for 12 hours. Three hours before harvest 10 μM Bromodeoxyuridine (BrdU) was added. Cells were then harvested and fixed in chilled 70% ethanol and left overnight. The next day cells were washed, resuspended in 200 μl of 2M HCl/Triton X (1%) and incubated for 30 mins at room temperature. Cells were then centrifuged at 2000 rpm for 10 mins and neutralized in 200 μl of 0.1M sodium tetraborate, pH 8.5 solution. Cells were then washed, suspended in 20 μl of PBS containing 0.5% tween20, 1% donkey serum and 2ul of anti-BrdU antibody (1:10 diution, BD Biosciences) and incubated overnight at 4° C. Cells were then washed and incubated with secondary antibody-anti mouse Alexa488 (1:1000) for 1 hour at room temperature. Cells were finally washed, suspended in PBS containing 100 μg/ml of RNase A, 50 μg/ml of PI (propidium iodide) and 0.05% Triton X and incubated for 30 mins at 37° C. in the dark. The cells were then subjected to FACS using the accuri C6 flow cytometer (UPCI shared resources).

[3] = Homo sapiens, MKL-1, read-out: EC50 concentrations for MCC cell lines, MKL-1
[4] = Homo sapiens, MS-1, read-out: EC50 concentrations for MCC cell lines, MS-1
[5] = Homo sapiens, WaGa (MCV-positive), Cell Titer Glo
[6] = Homo sapiens, UISO (MCV-negative), Cell Titer Glo
[7] = Homo sapiens, MKL-1 (MCV-positive), Cell Titer Glo, read-out: EC50 concentrations for MCC cell lines, MKL-1
[8] = Homo sapiens, MS-1 (MCV-positive), Cell Titer Glo, read-out: EC50 concentrations for MCC cell lines, MS-1
[9] = Homo sapiens, MKL-2 (MCV-positive), Cell Titer Glo
[10] = WaGa (MCV-positive), Cell Titer Glo
[11] = UISO (MCV-negative), Cell Titer Glo
[12] = MKL-1 (MCV-positive), Cell Titer Glo, read-out: EC50 concentrations for MCC cell lines, MKL-1
[13] = MS-1 (MCV-positive), Cell Titer Glo, read-out: EC50 concentrations for MCC cell lines, MS-1
[14] = MKL-2 (MCV-positive), Cell Titer Glo

SMILES | EC50 (WaGa; [5]) [nM] | EC50 (UISO; [6]) [nM] | EC50 (MKL-1; [7]) [nM] | EC50 (MS-1; [8]) [nM] | EC50 (MKL-2; [9]) [nM] | also measured
COc1ccc(C2=N[C@@H](c3ccc(Cl)cc3)[C@@H](c3ccc(Cl)cc3)N2C(=O)N2CCNC(=O)C2)c(OC(C)C)c1 [nutlin-3] | – | – | – | – | – | activity in screen (>90% inhibition of MKL-1 cell growth) (MKL-1 cells [1]): not active
COc1cccc2c1C(=O)c1c(O)c3c(c(O)c1C2=O)C[C@@](O)(C(C)=O)C[C@@H]3O[C@H]1C[C@H](N)[C@H](O)[C@H](C)O1 [Daunorubicin] | – | – | – | – | – | EC50 (WaGa; Homo sapiens): 18 nM; EC50 (UISO; Homo sapiens): 1400 nM; EC50 (MKL-1; [3]): 15 nM; EC50 (MS-1; [4]): 150 nM; EC50 (MKL-2; Homo sapiens): 86 nM
COc1cccc2c1C(=O)c1c(O)c3c(c(O)c1C2=O)C[C@@](O)(C(=O)CO)C[C@@H]3O[C@H]1C[C@H](N)[C@H](O)[C@H](C)O1 [Doxorubicin] | 22 | 250 | 210 | 370 | 22 | –
NC(=O)c1ncn([C@@H]2O[C@H](CO)[C@@H](O)[C@H]2O)n1 [ribavirin] | – | – | – | – | – | activity in screen (>90% inhibition of MKL-1 cell growth) (MKL-1 cells [1]): not active
CC[C@@]1(O)C(=O)OCc2c1cc1n(c2=O)Cc2cc3ccccc3nc2-1 [camptothecin] | – | – | – | – | – | BrdU incorporation (MKL-1 cells [2]): accumulation of BrdU-positive cells in G1 and G2
O=C1C(SCCO)=C(SCCO)C(=O)c2ccccc21 [NSC 95397] | – | – | – | – | – | EC50 (WaGa; [10]): 730 nM; EC50 (UISO; [11]): 2800 nM; EC50 (MKL-1; [12]): 1200 nM; EC50 (MS-1; [13]): 1800 nM; EC50 (MKL-2; [14]): 1500 nM
COc1cc(NS(C)(=O)=O)ccc1Nc1c2ccccc2nc2ccccc12 [Amsacrine hydrochloride] | 250 | 2600 | 110 | 7500 | 3000 | –
NC(=O)CI [Iodoacetamide] | – | – | – | – | – | EC50 (WaGa; Homo sapiens): 370 nM; EC50 (UISO; Homo sapiens): 2500 nM; EC50 (MKL-1; [3]): 290 nM; EC50 (MS-1; [4]): 640 nM; EC50 (MKL-2; Homo sapiens): 300 nM
C[n+]1cc2c3c(ccc2c2ccc4cc5c(cc4c21)OCO5)OCO3 [Sanguinarine chloride] | – | – | – | – | – | EC50 (WaGa; Homo sapiens): 2500 nM; EC50 (UISO; Homo sapiens): 6500 nM; EC50 (MKL-1; [3]): 5300 nM; EC50 (MS-1; [4]): 4900 nM; EC50 (MKL-2; Homo sapiens): 8400 nM
Cc1c2ccncc2c(C)c2c1[nH]c1ccccc12 [Ellipticine] | 3000 | 1100 | 3200 | 6900 | 6500 | –
CCN(CC)CCCC(C)Nc1c2ccc(Cl)cc2nc2ccc(OC)cc12 (stereo not drawn) [Quinacrine dihydrochloride] | – | – | – | – | – | EC50 (WaGa; Homo sapiens): 5200 nM; EC50 (UISO; Homo sapiens): 7100 nM; EC50 (MKL-1; [3]): 5100 nM; EC50 (MS-1; [4]): 4900 nM; EC50 (MKL-2; Homo sapiens): 4600 nM
CO[C@H]1C[C@@H]2CC[C@@H](C)[C@@](O)(O2)C(=O)C(=O)N2CCCC[C@H]2C(=O)O[C@H]([C@H](C)C[C@@H]2CC[C@@H](O)[C@H](OC)C2)CC(=O)[C@H](C)/C=C(\C)[C@@H](O)[C@@H](OC)C(=O)[C@H](C)C[C@H](C)/C=C/C=C/C=C/1C [rapamycin] | – | – | – | – | – | activity in screen (>90% inhibition of MKL-1 cell growth) (MKL-1 cells [1]): not active
Clc1ccc(C(c2ccc(Cl)cc2)n2cc[n+](CC(OCc3ccc(Cl)cc3Cl)c3ccc(Cl)cc3Cl)c2)cc1 (stereo not drawn) [Calmidazolium chloride] | 2100 | 2000 | 2200 | 2100 | 1700 | –
COc1ccc2c(c[n+](C)c3c4cc5c(cc4ccc23)OCO5)c1OC [Chelerythrine chloride] | 700 | 3700 | 600 | 520 | 650 | –
CC[C@@]1(O)C(=O)OCc2c1cc1n(c2=O)Cc2cc3c(CN(C)C)c(O)ccc3nc2-1 [Topotecan] | 15 | 170 | 28 | 620 | 430 | –
CC(C)(C)c1ccc(S(=O)(=O)/C=C/C#N)cc1 [Bay 11-7085] | – | – | – | – | – | EC50 (WaGa; [10]): 1200 nM; EC50 (UISO; [11]): 4500 nM; EC50 (MKL-1; [12]): 1400 nM; EC50 (MS-1; [13]): 2700 nM; EC50 (MKL-2; [14]): 1700 nM
COc1cc([C@@H]2c3cc4c(cc3[C@@H](O[C@@H]3O[C@@H]5CO[C@@H](c6cccs6)O[C@H]5[C@H](O)[C@H]3O)[C@H]3COC(=O)[C@H]23)OCO4)cc(OC)c1O [Teniposide] | 26 | 7300 | 10 | 3000 | 2800 | –
CCCCC(=O)OCC(=O)[C@]1(O)Cc2c(O)c3c(c(O)c2[C@@H](O[C@H]2C[C@H](NC(=O)C(F)(F)F)[C@H](O)[C@H](C)O2)C1)C(=O)c1c(OC)cccc1C3=O [Valrubicin] | 320 | 4000 | 230 | 9900 | 2800 | –
Nc1nc2c(ncn2COCCO)c(=O)[nH]1 [acyclovir] | – | – | – | – | – | activity in screen (>90% inhibition of MKL-1 cell growth) (MKL-1 cells [1]): not active
CCC(=O)N1CCN(c2ccc(-n3c(=O)ccc4cnc5ccc(-c6cnc7ccccc7c6)cc5c43)cc2C(F)(F)F)CC1 [Torin1] | – | – | – | – | – | activity in screen (>90% inhibition of MKL-1 cell growth) (MKL-1 cells [1]): not active
CCN(CC)C(=S)SSC(=S)N(CC)CC [Tetraethylthiuram disulfide] | 1100 | 13000 | 490 | 6300 | 190 | –
O=C1c2c(O)ccc(O)c2C(=O)c2c(NCCNCCO)ccc(NCCNCCO)c21 [Mitoxantrone] | 14 | 970 | 6 | 1600 | 1300 | –
CO[C@H]1C[C@@H]2CC[C@@H](C)[C@@](O)(O2)C(=O)C(=O)N2CCCC[C@H]2C(=O)O[C@H]([C@H](C)C[C@@H]2CC[C@@H](OCCO)[C@H](OC)C2)CC(=O)[C@H](C)/C=C(\C)[C@@H](O)[C@@H](OC)C(=O)[C@H](C)C[C@H](C)/C=C/C=C/C=C/1C [everolimus] | – | – | – | – | – | activity in screen (>90% inhibition of MKL-1 cell growth) (MKL-1 cells [1]): not active
